Patent US20200188361A1, “USE OF MITOCHONDRIAL ACTIVITY INHIBITORS FOR THE TREATMENT OF POOR PROGNOSIS ACUTE MYELOID LEUKEMIA” (UNIVERSITE DE MONTREAL, priority 2016, published 2020)

What was measured:
OCI-AML3 leukemic cells = conditions: acute injection, 1 μM (FIG. 5E)
Experimental: Oxygen consumption rates and extracellular acidification rates were measured using a 96-well Seahorse Bioanalyzer XFe96® or XFe24® according to the manufacturer's instructions (Agilent Technologies). Seahorse XF Base medium was supplemented with 1 mM pyruvate, 2 mM glutamine and 10 mM glucose in the case of Mitochondrial Stress Test and with 1 mM pyruvate, 2 mM glutamine and no glucose in the case of Glycolytic Stress Test. The pH of the Seahorse media was then adjusted at 7.4 prior to assay. In brief, leukemic cells were seeded into Seahorse 96-well (or 24-well) plates pre-coated for 3 h with poly-lysine (Sigma-Aldrich, P4707) at a density of 75,000 cells/well in 100 μL (or 150,000 cells/well, in 150 μL) of temperature/CO2 pre-adjusted Seahorse media per well. The Seahorse plates were then centrifuged at 1400 rpm for 5 min. An additional 75 μL (or 375 μL) of Seahorse media was then added and cells were eventually analyzed following the manufacturer's instructions by adding compounds in a constant volume of 25 μL (or 75 μL). Compounds were acutely injected in cells at a final concentration of 1 μM for Mubritinib, 1 μM for Oligomycin, 0.5 μM for FCCP, 0.5 μM for Rotenone/Antimycin A, Glucose 10 mM and 2-Deoxy-Glucose 50 mM.

OCI-AML5 cells = conditions: FIG. 5G, 6-day culture
Experimental: FIGS. 5A-5J show the results on experiments assessing the mode of action of Mubritinib for mediating tumor cell death. FIG. 5A: OCI-AML3 leukemic cells were either pre-incubated for 4 hours with 6 mM N-acetyl-cysteine (NAC), a reactive oxygen species (ROS) scavenger, or with vehicle (water) before being treated with 100 nM Mubritinib for 24 h or vehicle (DMSO). […] FIGS. 5C and 5D show the levels of reduced and oxidized levels of glutathione, respectively, in OCI-AML3 treated or not with Mubritinib, as detected by liquid chromatography-mass spectrometry (LC/MS). […] FIG. 5G is a graph depicting dose-response curves upon Mubritinib treatment (6-day culture assay in 384-well plates) of OCI-AML3 and OCI-AML5 cell lines. […]
Patient cells were seeded in 384-well plates at a density of 5,000 cells in 50 μL per well. […] Viable cell counts per well were evaluated after 6 days of culture using the CellTiterGlo® assay (Promega®) according to the manufacturer's instruction. The percent of inhibition was calculated as follows: 100−(100×(mean luminescence(compound)/mean luminescence(DMSO)); where mean-luminescence(compound) corresponds to the average of luminescent signals obtained for the compound-treated cells, and mean-luminescence(DMSO) corresponds to the average of luminescent signals obtained for the control DMSO-treated cells.

[1] = tested on: mitochondrial electron transfer chain (ETC) complex I; conditions: cell free assay (FIG. 5F)
Experimental: FIGS. 5A-5J show the results on experiments assessing the mode of action of Mubritinib for mediating tumor cell death. FIG. 5A: OCI-AML3 leukemic cells were either pre-incubated for 4 hours with 6 mM N-acetyl-cysteine (NAC), a reactive oxygen species (ROS) scavenger, or with vehicle (water) before being treated with 100 nM Mubritinib for 24 h or vehicle (DMSO). […] FIGS. 5C and 5D show the levels of reduced and oxidized levels of glutathione, respectively, in OCI-AML3 treated or not with Mubritinib, as detected by liquid chromatography-mass spectrometry (LC/MS). […] FIG. 5G is a graph depicting dose-response curves upon Mubritinib treatment (6-day culture assay in 384-well plates) of OCI-AML3 and OCI-AML5 cell lines. FIGS. 5H-J are graphs depicting dose-response curves following treatment of OCI-AML3 and OCI-AML5 cell lines with other ETC inhibitors, namely Oligomycin (inhibitor of complex V, FIG. 5H), Rotenone (inhibitor of complex I, FIG. 5I) and Deguelin (inhibitor of complex I, FIG. 5J).

For `FC(F)(F)c1ccc(/C=C/c2nc(COc3ccc(CCCCn4ccnn4)cc3)co2)cc1` [Mubritinib, 1-(4-{4-[(2-{(E)-2-[4-(trifluoromethyl)phenyl]ethenyl}-1,3-oxazol-4-yl)methoxy]phenyl}butyl)-1H-1,2,3-triazole], the oxygen consumption rate (OCI-AML3 leukemic cells) was “impaired oxygen consumption rate”, the “sensitivity of OCI-AML5 cells to compound-induced cell death” value (OCI-AML5 cells) was “resistant” and the “ETC Complex I activity” value [1] was “inhibitory effect on ETC Complex I activity”.
